What all share (format): cell-based
Assay [1] has as its system Micrococus flavus ATCC 10240. Briefly: MIC in vitro. The conditions noted are these: Micrococcus flavus, ATCC10240, Dextrose agar, 37° C., 20 hours. How it is done:
(§1) (G. L. Daquet and Y. A. Chabbect, Techniques en bacteriologie (Bacteriological techniques), vol. 3, Flammarion Medecine Sciences, Paris, 1972 and W. B. Hugo and A. D. Rusell, Pharmaceutical Microbiology, Blackwell Scientific Publications, London, (1977)). Antibiotic medium no. 1 (seed agar) (Oxoid CM 327) Tryptone-soya broth (Oxoid CM 129) Ringer's physiological solution 1/4 (oxoid BR 52) Dextrose agar (BBL-11165) 0.1 N NaOH "Micrococcus flavus" ATCC 10240 Each of the microorganisms is seeded by streaking in tubes of Antibiotic medium No. 1 (seed agar), which are then incubated at 37° C. for 20 hours. Using a culture loop, the cultures are then seeded in tryptone-soyabroth and incubated at 37° C. for 20 hours. The culture obtained is diluted to 1/4 with Ringer's physiological solution, so as to obtain a standardized suspension of 10^7 -10^9 cfu/ml for each organism. Starting from a solution of 1,000 μg/ml in 0.1 N NaOH, each product is diluted in Dextrose agar (previously melted and maintained at 50° C.), with successive dilutions so as to obtain the following concentrations: 64--32--16--8--4--2--1--0.5--0.25--0.125 μg of derivative/ml medium. For each product, the solution of each concentration is subsequently distributed into Petri dishes 10 cm in diameter, with 10 ml of medium per dish and the same number of dishes as microorganisms to be tested. As soon as the medium has cooled, the dishes are seeded with the inoculations using 0.4 ml of inoculation per dish. They are spread with a Driglasky loop and the supernatant is removed. The seeded dishes are incubated at 37° C. for 20 hours.

Assay [2] deals with Proteus mirabilis ATCC 4675. Kind of assay: MIC in vitro. The note with it: ATCC4675, Dextrose agar, 37° C., 20 hours. Here is the method: as §1, with “"Proteus mirabilis"” for “"Micrococcus flavus"”, “4675” for “10240”
Another assay has as its system Proteus morganii CHSP 16. Kind of assay: MIC in vitro. The note with it: Morganella morganii, CHSP16, Dextrose agar, 37° C., 20 hours. How it is done:
as §1, with “"Proteus morganii" CHSP 16” for “"Micrococcus flavus" ATCC 10240”

In the next assay the test system is gram-positive cocci. Briefly: in vitro antimicrobial activity compared to pipemidic acid. Here is the method: (G. L. Daquet and Y. A. Chabbect, Techniques en bacteriologie (Bacteriological techniques), vol. 3, Flammarion Medecine Sciences, Paris, 1972 and W. B. Hugo and A. D. Rusell, Pharmaceutical Microbiology, Blackwell Scientific Publications, London, (1977)).
Antibiotic medium no. 1 (seed agar) (Oxoid CM 327)
Tryptone-soya broth (Oxoid CM 129)
Ringer's physiological solution 1/4 (oxoid BR 52) Dextrose agar (BBL-11165) 0.1 N NaOH
Each of the microorganisms is seeded by streaking in tubes of Antibiotic medium No. 1 (seed agar), which are then incubated at 37° C. for 20 hours. Using a culture loop, the cultures are then seeded in tryptone-soyabroth and incubated at 37° C. for 20 hours. The culture obtained is diluted to 1/4 with Ringer's physiological solution, so as to obtain a standardized suspension of 10^7 -10^9 cfu/ml for each organism.
Starting from a solution of 1,000 μg/ml in 0.1 N NaOH, each product is diluted in Dextrose agar (previously melted and maintained at 50° C.), with successive dilutions so as to obtain the following concentrations: 64--32--16--8--4--2--1--0.5--0.25--0.125 μg of derivative/ml medium.
For each product, the solution of each concentration is subsequently distributed into Petri dishes 10 cm in diameter, with 10 ml of medium per dish and the same number of dishes as microorganisms to be tested.
As soon as the medium has cooled, the dishes are seeded with the inoculations using 0.4 ml of inoculation per dish. They are spread with a Driglasky loop and the supernatant is removed. The seeded dishes are incubated at 37° C. for 20 hours.

Values after ≈ are worked out from the molar mass of the structure shown.

A word on the MIC: it is the lowest concentration that inhibits growth of the organism. Turning to `CCn1cc(C(=O)O)c(=O)c2ccc(-n3cccc3)nc21` [Example 3, 1-ethyl-1,4-dihydro-4-oxo-7-(1-pyrrolyl)-1,8-naphthyridine-3-carboxylic acid], the MIC in assay [1] was 4 µg/mL (≈ 14.1 µM); in assay [2] it was more than 64 µg/mL; in the assay on Proteus morganii CHSP 16 it was 8 µg/mL (≈ 28.2 µM). The “"in vitro" activity compared to pipemidic acid” value in the assay with gram-positive cocci is listed as “a greater activity”.
Regarding `CCn1cc(C(=O)O)c(=O)c2cc(F)c(-n3cccc3)cc21` [Example 2, 6-fluoro-7-(1-pyrrolyl)-1-ethyl-1,4-dihydro-4-oxo-3-quinolinecarboxylic acid], the MIC worked out at 8 µg/mL (≈ 26.6 µM) in assay [1], 4 µg/mL (≈ 13.3 µM) in assay [2] and 2 µg/mL (≈ 6.66 µM) against Proteus morganii CHSP 16. The “"in vitro" activity compared to pipemidic acid” value in the assay with gram-positive cocci is given as “greater than that of pipemidic acid”.
Turning to `CCn1cc(C(=O)O)c(=O)c2cnc(N3CCNCC3)nc21` [Pipemidic acid, reference compound], the figures for the MIC (in assay [1]; in assay [2]; with Proteus morganii CHSP 16) were more than 64 µg/mL, 16 µg/mL (≈ 52.7 µM) and 8 µg/mL (≈ 26.4 µM), respectively.
With `CCn1cc(C(=O)O)c(=O)c2ccc(-n3cccc3)cc21` [Example 1, 7-(1-pyrrolyl)-1-ethyl-1,4-dihydro-4-oxo-3-quinolinecarboxylic acid], the MIC in assay [1] is 16 µg/mL (≈ 56.7 µM); in assay [2] it was 16 µg/mL (≈ 56.7 µM); in the assay on Proteus morganii CHSP 16, 8 µg/mL (≈ 28.3 µM). In addition, the “"in vitro" activity compared to pipemidic acid” value with gram-positive cocci is “greater than that of pipemidic acid”.
Take `CCn1cc(C(=O)O)c(=O)c2cc(F)c(-n3cccc3)nc21` [Example 4, 1-ethyl-1,4-dihydro-4-oxo-6-fluoro-7-(1-pyrrolyl)-1,8-naphthyridine-3-carboxylic acid]: the results for the MIC (in assay [1]; in assay [2]; against Proteus morganii CHSP 16) were 1 µg/mL (≈ 3.32 µM), 8 µg/mL (≈ 26.6 µM) and 4 µg/mL (≈ 13.3 µM), respectively. The “"in vitro" activity compared to pipemidic acid” value in the assay with gram-positive cocci is “greater than that of pipemidic acid”.

Values taken from patent US4552882A, “7-(1-Pyrrolyl) derivatives of 1-ethyl-1,4-dihydro-4-oxoquinoline-3-carboxylic acids and 1-ethyl-1,4-dihydro-4-oxo-1,8-naphthyridine-3-carboxylic acids and their use as antimicrobial agents” (Provesan, SA, priority 1983, dated 1985).
